The assay has as its target Motilin receptor (Homo sapiens, UniProt O43193). Briefly: SUPPLEMENTARY: Agonist activity at human recombinant motilin receptor expressed in CHO cells by calcium mobilization-based FLIPR assay. Same assay as CHEMBL942680. It counts as functional, cell-based. On the technique in general: Calcium flux is commonly read through the fluorescence of an indicator in the cells.
Motilin receptor, sequence (O43193 whole entry): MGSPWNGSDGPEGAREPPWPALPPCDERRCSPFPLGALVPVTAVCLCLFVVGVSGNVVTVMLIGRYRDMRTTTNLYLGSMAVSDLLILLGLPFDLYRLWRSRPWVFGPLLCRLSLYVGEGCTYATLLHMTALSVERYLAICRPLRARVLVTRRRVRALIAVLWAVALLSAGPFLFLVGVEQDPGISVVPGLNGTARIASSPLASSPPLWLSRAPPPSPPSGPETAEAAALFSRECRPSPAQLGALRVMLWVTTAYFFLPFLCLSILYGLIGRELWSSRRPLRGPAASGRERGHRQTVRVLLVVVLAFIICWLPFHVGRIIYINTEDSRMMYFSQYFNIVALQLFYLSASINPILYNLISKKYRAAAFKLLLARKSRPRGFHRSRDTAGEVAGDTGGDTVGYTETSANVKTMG
Usually EC50 stands for the concentration that produces a half-maximal response. For `C[C@@H]1CN(Cc2ccc(CC(=O)N3CCC(Oc4ccc(F)cc4)CC3)cc2)CCN1`, the EC50 is 12.6 nM. On to `C[C@H]1CN(Cc2ccc(CC(=O)N3CCC(Nc4ccc(C#N)cc4)CC3)cc2)CCN1`, for which the EC50 is 31.6 nM. As for `C[C@H]1CN(Cc2ccc(CC(=O)N3CCC(Nc4ccc(F)c(F)c4)CC3)cc2)CCN1`, the figure is 7.94 nM.

With `C[C@H]1CN(Cc2ccc(CC(=O)N3CCC(Oc4ccc(F)cc4)CC3)cc2)CCN1`, the EC50 was 20 nM. As for `C[C@H]1CN(Cc2ccc(CC(=O)N3CCC(Oc4cccc(F)c4)CC3)cc2)CCN1`, the figure is 25.1 nM; as for `C[C@H]1CN(Cc2ccc(CC(=O)N3CCC(Nc4ccc(C(F)(F)F)cc4)CC3)cc2)CCN1`, 10 nM; as for `C[C@H]1CN(Cc2ccc(CC(=O)N3CCC(Nc4cccc(C(F)(F)F)c4)CC3)cc2)CCN1`, 6.31 nM. The result for `COc1cc(CC(=O)N2CCC(Nc3cccc(F)c3)CC2)ccc1CN1CCN[C@@H](C)C1` reads 25.1 nM; that for `C[C@@H]1CN(Cc2ccc(CC(=O)N3CCC(Nc4ccc(F)c(F)c4)CC3)cc2)CCN1`, 12.6 nM. The result for `C[C@@H]1CN(Cc2ccc(CC(=O)N3CCC(Oc4cccc(F)c4)CC3)cc2)CCN1` reads 15.8 nM; that for `C[C@@H]1CN(Cc2ccc(CC(=O)N3CCC(Oc4ccc(C#N)cc4)CC3)cc2)CCN1`, 12.6 nM; that for `C[C@@H]1CN(Cc2ccc(CC(=O)N3CCC(Nc4ccc(C#N)cc4)CC3)cc2)CCN1`, 15.8 nM. `C[C@@H]1CN(Cc2ccc(CC(=O)N3CCC(Nc4cccc(C#N)c4)CC3)cc2)CCN1`: the EC50 was 3.16 nM.

On to `C[C@@H]1CN(Cc2ccc(CC(=O)N3CCC(Nc4cccc(C(F)(F)F)c4)CC3)cc2)CCN1`, for which the EC50 is 2.51 nM. In the case of `C[C@H]1CN(Cc2ccc(N(C)C(=O)c3ccc(-c4ccc(F)cc4)nc3)cc2)CCN1`, the EC50 is 1.58 nM.

`C[C@H]1CN(Cc2ccc(N(C)C(=O)c3ccc(-c4ccc(F)cc4)cc3)cc2)CCN1`: the EC50 is 39.8 nM. The result for `C[C@H]1CN(Cc2ccc(N(C)C(=O)C3CCN(Cc4cccc(F)c4)CC3)cc2)CCN1` reads 5.01 nM; that for `C[C@H]1CN(Cc2ccc(N(C)C(=O)c3ccc(-c4ccccc4F)nc3)cc2)CCN1`, 5.01 nM. As for `C[C@H]1CN(Cc2ccc(N(C)C(=O)c3ccc(-c4cccc(F)c4)nc3)cc2)CCN1`, the figure is 1.26 nM. As for `Cc1nc(-c2cccc(F)c2)ccc1C(=O)N(C)c1ccc(CN2CCN[C@@H](C)C2)cc1`, the figure is 0.631 nM.

As for `C[C@H]1CN(Cc2ccc(N(C)C(=O)c3ccc(Oc4cccc(F)c4)cc3)cc2)CCN1`, the concentration for a half-maximal effect (EC50) is 2.51 nM. The result for `Cc1nc(-c2cccc(C#N)c2)ccc1C(=O)N(C)c1ccc(CN2CCN[C@@H](C)C2)cc1` reads 1.58 nM; that for `Cc1nc(-c2ccc(F)cc2)ccc1C(=O)N(C)c1ccc(CN2C[C@@H](C)N[C@@H](C)C2)cc1`, 0.398 nM.

Regarding `C[C@@H]1CN(Cc2ccc(N(C)C(=O)c3ccc(-c4ccc(F)cc4)nc3)cc2)C[C@H](C)N1`, the EC50 is 2 nM.

On to `C[C@H]1CN(Cc2ccc(N(C)C(=O)c3ccc(Oc4ccccc4F)cc3)cc2)CCN1`, for which the 50% effective concentration (EC50) was 5.01 nM.

For `Cc1nc(-c2ccc(F)cc2)ncc1C(=O)N(C)c1ccc(CN2CCN[C@@H](C)C2)cc1`, the EC50 is 1.58 nM.

With `C[C@H]1CN(Cc2ccc(N(C)C(=O)c3cnc(-c4ccc(F)cc4)nc3)cc2)CCN1`, the EC50 is 5.01 nM. The result for `C[C@H]1CN(Cc2ccc(CC(=O)N3CCC(Nc4cccc(F)c4)CC3)cc2Cl)CCN1` reads 5.01 nM. Consider `C[C@H]1CN(Cc2ccc(N(C)C(=O)c3ccc(Oc4ccccc4F)nc3)cc2)CCN1`, for which the EC50 was 7.94 nM. As for `Cc1cc(N(C)C(=O)c2ccc(-c3cccc(F)c3)nc2)ccc1CN1CCN[C@@H](C)C1`, the EC50 is 0.251 nM. As for `C[C@H]1CN(Cc2ccc(NS(=O)(=O)c3ccc(N4CCCCC4)nc3)cc2)CCN1`, the figure is 100 nM; as for `C[C@H]1CN(Cc2ccc(N(C)C(=O)c3ccc(-c4cccc(C#N)c4)nc3)cc2)CCN1`, 7.94 nM; as for `C[C@H]1CN(Cc2ccc(N(C)C(=O)c3ccc(Oc4cccc(C#N)c4)nc3)cc2)CCN1`, 3.16 nM.

`C[C@H]1CN(Cc2ccc(N(C)C(=O)c3ccc(-c4cccc(F)c4)nc3)c(F)c2)CCN1`: the EC50 was 6.31 nM. Consider `C[C@H]1CN(Cc2ccc(N(C)C(=O)c3ccc(Oc4cccc(F)c4)cn3)cc2)CCN1`, for which the EC50 is 1 nM. As for `C[C@H]1CN(Cc2ccc(N(C)C(=O)c3ccc(Oc4ccc(F)cc4)nc3)c(F)c2)CCN1`, the figure is 3.16 nM; as for `C[C@H]1CN(Cc2ccc(N(C)C(=O)c3ccc(Oc4cccc(C#N)c4)cn3)cc2)CCN1`, 2 nM. `C[C@H]1CN(Cc2ccc(N(C)C(=O)C3CCN(Cc4ccc(F)cc4)CC3)cc2)CCN1`: the half-maximal effective concentration (EC50) is 7.94 nM. For `C[C@H]1CN(Cc2ccc(N(C)C(=O)c3ccc(-c4cccc(F)c4)nc3)cc2F)CCN1`, the EC50 was 1.26 nM. `CCN(C(=O)c1ccc(-c2cccc(F)c2)nc1)c1ccc(CN2CCN[C@@H](C)C2)cc1`: the EC50 was 0.794 nM. As for `C[C@H]1CN(Cc2ccc(N(C)C(=O)c3ccc(Oc4ccc(F)cc4)nc3)nc2)CCN1`, the figure is 31.6 nM. The result for `C[C@H]1CN(Cc2ccc(N(C)C(=O)C3CCN(Cc4cccc(C#N)c4)CC3)cc2)CCN1` reads 39.8 nM. The result for `C[C@H]1CN(Cc2ccc(N(C)C(=O)C3CCN(Cc4ccc(C#N)cc4)CC3)cc2)CCN1` reads 63.1 nM; that for `C[C@H]1CN(Cc2ccc(N(C)C(=O)c3ccc(-c4cccc(F)c4)cn3)cc2)CCN1`, 7.94 nM; that for `C[C@H]1CN(Cc2ccc(N(C)C(=O)c3ccc(-c4ccc(F)cc4)cn3)cc2)CCN1`, 7.94 nM.

`CC(C)N(C(=O)c1ccc(-c2cccc(F)c2)nc1)c1ccc(CN2CCN[C@@H](C)C2)cc1`: the EC50 is 12.6 nM.

For the molecule `C[C@H]1CN(Cc2ccc(N(C)C(=O)c3ccc(-c4cccc(C#N)c4)cn3)cc2)CCN1`, the EC50 was 39.8 nM. As for `C[C@H]1CN(Cc2ccc(N(C)C(=O)c3ccc(C(=O)c4ccc(C(F)(F)F)cc4)cc3)cc2)CCN1`, the figure is 20 nM. The result for `COc1cccc(-c2ccc(C(=O)N(C)c3ccc(CN4CCN[C@@H](C)C4)cc3)nc2)c1` reads 7.94 nM; that for `Cc1cc(N(C)C(=O)c2ccc(Oc3ccc(F)cc3)nc2)ccc1CN1CCN[C@@H](C)C1`, 0.251 nM; that for `COCCN(C(=O)c1ccc(-c2cccc(F)c2)nc1)c1ccc(CN2CCN[C@@H](C)C2)cc1`, 15.8 nM. The result for `C[C@@H]1CN(Cc2ccc(NS(=O)(=O)c3ccc(-c4ccc(F)cc4)nc3)cc2)C[C@H](C)N1` reads 158 nM; that for `Cc1cc(NS(=O)(=O)c2ccc(-c3ccc(F)cc3)nc2)ccc1CN1CCN[C@@H](C)C1`, 1.58 nM; that for `COCCN(C(=O)c1ccc(Oc2ccc(F)cc2)nc1)c1ccc(CN2CCN[C@@H](C)C2)cc1`, 15.8 nM.

Consider `C[C@H]1CN(Cc2ccc(N(C)C(=O)c3ccc(Oc4ccc(F)cc4)nc3)cc2Cl)CCN1`, for which the EC50 is 0.316 nM. As for `CCN(C(=O)c1ccc(Oc2ccc(F)cc2)nc1)c1ccc(CN2CCN[C@@H](C)C2)cc1`, the figure is 0.398 nM; as for `C[C@H]1CN(Cc2ccc(N(C)C(=O)c3ccc(N4CCC(F)CC4)nc3)cc2)CCN1`, 79.4 nM; as for `C[C@H]1CN(Cc2ccc(NS(=O)(=O)c3ccc(-c4ccc(F)cc4)nc3)cc2C(F)(F)F)CCN1`, 1.58 nM. The result for `Cc1cc(N(C)C(=O)c2ccc(Oc3ccc(F)cc3)nc2)ncc1CN1CCN[C@@H](C)C1` reads 2 nM; that for `Cc1cc(NS(=O)(=O)c2cncc(-c3ccc(F)cc3)c2)ccc1CN1CCN[C@@H](C)C1`, 20 nM; that for `C[C@@H]1CN(Cc2ccn(-c3cccnc3N3CCC(Nc4ccc(F)cc4)CC3)n2)C[C@H](C)N1`, 2 nM. With `C[C@@H]1CN(Cc2ccc(-c3cccnc3N3CCC(Nc4ccc(F)cc4)CC3)s2)C[C@H](C)N1`, the concentration giving a half-maximal response (EC50) was 25.1 nM. As to `C[C@@H]1CN(Cc2ccc(-c3cccnc3S(=O)(=O)N3CCC(Nc4ccccc4F)CC3)cc2F)C[C@H](C)N1`, the EC50 was 20 nM. The result for `C[C@H]1CN(Cc2ccc(-c3cccnc3C(=O)N3CCC(Nc4ccc(F)cc4)CC3)cc2)CCN1` reads 1 nM. As for `C[C@@H]1CN(Cc2ccn(-c3cccnc3N3CCC(Oc4ccccc4F)CC3)n2)C[C@H](C)N1`, the figure is 6.31 nM. As for `C[C@@H]1CN(Cc2ccn(-c3cccnc3N3CCC(Oc4cccc(F)c4)CC3)n2)C[C@H](C)N1`, the figure is 2.51 nM; as for `C[C@@H]1CN(Cc2ccn(-c3cccnc3N3CCC(Oc4ccc(F)cc4)CC3)n2)C[C@H](C)N1`, 1.26 nM. As for `C[C@H]1CN(Cc2ccn(-c3cccnc3N3CCC(Oc4cccc(F)c4)CC3)n2)CCN1`, the EC50 was 0.794 nM.

Turning to `C[C@@H]1CN(Cc2ccc(CCC(=O)N3CCC(Nc4cccc(F)c4)CC3)cc2)C[C@H](C)N1`, the EC50 is 39.8 nM. The result for `CC(C(=O)N1CCC(Nc2cccc(F)c2)CC1)c1ccc(CN2C[C@@H](C)N[C@@H](C)C2)cc1` (stereo partly specified) reads 15.8 nM; that for `C[C@@H]1CN(Cc2ccc(C(C)(C)C(=O)N3CCC(Nc4cccc(F)c4)CC3)cc2)C[C@H](C)N1`, 25.1 nM.

For the origin of these results see ChEMBL document CHEMBL2364262, “Structure-activity relationship data for chemical series of agonists of the motilin receptor (Supplementary Bioactivity Data for publication CHEMBL1141008)”.
